Data published in patent publication US9771352B2, “Hydroxyalkyl-substituted phenyltriazole derivatives and uses thereof” (BAYER PHARMA AKTIENGESELLSCHAFT, priority 2014, dated 2017).

Experiments:
[1] = system: conscious rats; assay: Diuresis investigations in conscious rats kept in metabolism cages; type: in vivo, Wistar rats; conditions: Rattus norvegicus, po, read-out: Urinary volume; for response vs control in vivo at 0.3 mg/kg: dosage p.o. 0.3 mg/kg (Table 2A); for response vs control in vivo at 3 mg/kg: dosage p.o. 3.0 mg/kg (Table 2A); for response vs control in vivo at 1 mg/kg: dosage p.o. 1.0 mg/kg (Table 2A)
Method: Wistar rats (220-450 g body weight) are kept with free access to feed (Altromin) and drinking water. During the experiment, the animals are kept with free access to drinking water for 4 to 8 or up to 24 hours individually in metabolism cages suitable for rats of this weight class (Tecniplast Deutschland GmbH, D-82383 HohenpeiBenberg). At the beginning of the experiment, the animals are administered the test substance in a volume of 1 to 3 ml/kg body weight of a suitable solvent by means of gavage into the stomach. Control animals only receive solvent. Controls and substance tests are carried out in parallel on the same day. Control groups and substance-dose groups each consist of 4 to 8 animals. During the experiment, the urine excreted by the animals is collected continuously in a receiver at the base of the cage. The volume of urine per time unit is determined separately for each animal, and the concentration of urinary electrolytes is measured by standard methods of flame photometry. Before the beginning of the experiment, the body weight of the individual animals is determined.

[2] = biological target: T1, human V1a receptor (Homo sapiens, UniProt P37288); assay: Cellular in vitro assay for determining vasopressin receptor activity, V1a receptor cell line (photoprotein luminescence); type: cell-based; conditions: CHO cell line transfected with human V1a receptor; [Arg8]-vasopressin at EC50; compounds of the invention (Table 1A); read-out: IC50 hV1a
T1 construct: expressed in transfected cells; host or cells: CHO K1 (ATCC), also stably transfected with modified aequorin

[3] = biological target: T2, human V2 receptor (Homo sapiens, UniProt P30518); assay: Cellular in vitro assay for determining vasopressin receptor activity, V2 receptor cell line (CRE-luciferase); type: cell-based; conditions: CHO cell line transfected with human V2 receptor; [Arg8]-vasopressin at EC50; compounds of the invention (Table 1A); read-out: IC50 hV2
T2 construct: expressed in transfected cells; host or cells: CHO K1 (ATCC) expressing firefly luciferase under a CRE-responsive promoter
Method in brief: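 CHO K1 cells stably expressing human V2 receptor with CRE-driven firefly luciferase, plated the day before in DMEM/F12 with 2% FCS at 37° C. Receptor activation raises cAMP and luciferase expression; after Triton lysis and luciferin addition, luminescence is read and IC50 values derived.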

T2 sequence (P30518 whole entry): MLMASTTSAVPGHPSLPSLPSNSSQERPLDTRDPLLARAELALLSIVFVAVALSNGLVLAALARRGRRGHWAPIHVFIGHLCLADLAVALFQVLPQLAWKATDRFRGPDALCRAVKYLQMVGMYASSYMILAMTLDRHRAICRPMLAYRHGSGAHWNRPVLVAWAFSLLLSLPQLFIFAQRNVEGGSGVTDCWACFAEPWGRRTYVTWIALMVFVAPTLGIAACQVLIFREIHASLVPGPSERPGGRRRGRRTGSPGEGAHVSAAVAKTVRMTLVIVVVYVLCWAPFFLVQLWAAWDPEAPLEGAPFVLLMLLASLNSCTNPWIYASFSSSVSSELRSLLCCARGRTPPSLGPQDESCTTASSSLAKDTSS
T1 sequence (P37288 whole entry): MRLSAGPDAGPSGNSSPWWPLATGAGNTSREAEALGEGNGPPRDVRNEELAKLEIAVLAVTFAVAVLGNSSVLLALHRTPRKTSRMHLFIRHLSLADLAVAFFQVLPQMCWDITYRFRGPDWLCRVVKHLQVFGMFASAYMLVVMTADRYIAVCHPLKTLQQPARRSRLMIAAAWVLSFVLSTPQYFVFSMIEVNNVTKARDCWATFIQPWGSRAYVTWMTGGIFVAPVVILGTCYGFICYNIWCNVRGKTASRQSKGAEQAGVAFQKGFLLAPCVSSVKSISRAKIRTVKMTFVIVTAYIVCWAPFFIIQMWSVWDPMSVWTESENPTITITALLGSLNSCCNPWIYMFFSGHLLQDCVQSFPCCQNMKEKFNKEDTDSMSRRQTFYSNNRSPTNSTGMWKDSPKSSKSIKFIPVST

| Compound | IC50 [2] | IC50 [3] | response vs control in vivo at 0.3 mg/kg [1] | response vs control in vivo at 3 mg/kg [1] | response vs control in vivo at 1 mg/kg [1] |
| --- | --- | --- | --- | --- | --- |
| COc1ccccc1-n1nc(Cn2nc(-c3ccc(Cl)cc3)n(C[C@H](O)C(F)(F)F)c2=O)nc1CO [Example 3, 5-(4-Chlorophenyl)-2-{[5-(hydroxymethyl)-1-(2-methoxyphenyl)-1H-1,2,4-triazol-3-yl]methyl}-4-[(2S)-3,3,3-trifluoro-2-hydroxypropyl]-2,4-dihydro-3H-1,2,4-triazol-3-one] | 1 nM | 5.6 nM | 89% | 450% |  |
| O=c1n(Cc2nc(CO)n(-c3ccccc3Cl)n2)nc(-c2ccc(Cl)cc2)n1C[C@H](O)C(F)(F)F [Example 4, 5-(4-Chlorophenyl)-2-{[1-(2-chlorophenyl)-5-(hydroxymethyl)-1H-1,2,4-triazol-3-yl]methyl}-4-[(2S)-3,3,3-trifluoro-2-hydroxypropyl]-2,4-dihydro-3H-1,2,4-triazol-3-one] | 0.4 nM | 5.3 nM | 91% |  | 190% |
| Cc1ccccc1-n1nc(Cn2nc(-c3ccc(Cl)cc3)n(C[C@H](O)C(F)(F)F)c2=O)nc1CO [Example 5, 5-(4-Chlorophenyl)-2-{[5-(hydroxymethyl)-1-(2-methylphenyl)-1H-1,2,4-triazol-3-yl]methyl}-4-[(2S)-3,3,3-trifluoro-2-hydroxypropyl]-2,4-dihydro-3H-1,2,4-triazol-3-one] | 0.4 nM | 1.8 nM | 166% |  | 438% |
| O=c1n(Cc2nc(CO)n(-c3cc(F)cc(Cl)c3)n2)nc(-c2ccc(Cl)cc2)n1C[C@H](O)C(F)(F)F [Example 6, 2-{[1-(3-Chloro-5-fluorophenyl)-5-(hydroxymethyl)-1H-1,2,4-triazol-3-yl]methyl}-5-(4-chlorophenyl)-4-[(2S)-3,3,3-trifluoro-2-hydroxypropyl]-2,4-dihydro-3H-1,2,4-triazol-3-one] | 10.6 nM | 1.7 nM | 132% |  | 439% |

Continued, in another order:

| IC50 [2] | IC50 [3] | Compound | response vs control in vivo at 0.3 mg/kg [1] | response vs control in vivo at 3 mg/kg [1] | response vs control in vivo at 1 mg/kg [1] |
| --- | --- | --- | --- | --- | --- |
| 0.5 nM | 1.1 nM | Cc1ccccc1-n1nc(Cn2nc(-c3ccc(Cl)cc3)n(C[C@H](O)C(F)(F)F)c2=O)nc1C(C)O (single isomer, unassigned) [Example 70] | 139% | 595% |  |
| 6 nM | 2.5 nM | O=c1n(Cc2nc(CO)n(-c3cccc(Cl)c3)n2)nc(-c2ccc(Cl)cc2)n1C[C@H](O)C(F)(F)F [Example 1, 5-(4-Chlorophenyl)-2-{[1-(3-chlorophenyl)-5-(hydroxymethyl)-1H-1,2,4-triazol-3-yl]methyl}-4-[(2S)-3,3,3-trifluoro-2-hydroxypropyl]-2,4-dihydro-3H-1,2,4-triazol-3-one] | 194% | 588% |  |
| 5 nM | 8.7 nM | O=c1n(Cc2nc(CO)n(-c3cccc(F)c3)n2)nc(-c2ccc(Cl)cc2)n1C[C@H](O)C(F)(F)F [Example 2, 5-(4-Chlorophenyl)-2-{[1-(3-fluorophenyl)-5-(hydroxymethyl)-1H-1,2,4-triazol-3-yl]methyl}-4-[(2S)-3,3,3-trifluoro-2-hydroxypropyl]-2,4-dihydro-3H-1,2,4-triazol-3-one] | 194% | 588% |  |
| 2.5 nM | 5.1 nM | C[C@H](O)c1nc(Cn2nc(-c3ccc(Cl)cc3)n(C[C@H](O)C(F)(F)F)c2=O)nn1-c1cccc(F)c1 [Example 76, 5-(4-Chlorophenyl)-2-({1-(3-fluorophenyl)-5-[(1S)-1-hydroxyethyl]-1H-1,2,4-triazol-3-yl}-methyl)-4-[(2S)-3,3,3-trifluoro-2-hydroxypropyl]-2,4-dihydro-3H-1,2,4-triazol-3-one] | 350% |  |  |
| 3.6 nM | 1.7 nM | C[C@H](O)c1nc(Cn2nc(-c3ccc(Cl)cc3)n(C[C@H](O)C(F)(F)F)c2=O)nn1-c1cccc(Cl)c1 [Example 79, 5-(4-Chlorophenyl)-2-({1-(3-chlorophenyl)-5-[(1S)-1-hydroxyethyl]-1H-1,2,4-triazol-3-yl}-methyl)-4-[(2S)-3,3,3-trifluoro-2-hydroxypropyl]-2,4-dihydro-3H-1,2,4-triazol-3-one] | 612% |  |  |
| 0.7 nM | 2.3 nM | C[C@H](O)c1nc(Cn2nc(-c3ccc(Cl)cc3)n(C[C@H](O)C(F)(F)F)c2=O)nn1-c1ccccc1Cl [Example 82, 5-(4-Chlorophenyl)-2-({1-(2-chlorophenyl)-5-[(1S)-1-hydroxyethyl]-1H-1,2,4-triazol-3-yl}-methyl)-4-[(2S)-3,3,3-trifluoro-2-hydroxypropyl]-2,4-dihydro-3H-1,2,4-triazol-3-one] | 220% | 828% |  |
| 1 nM | 6.7 nM | C[C@@H](O)c1nc(Cn2nc(-c3ccc(Cl)cc3)n(C[C@H](O)C(F)(F)F)c2=O)nn1-c1ccccc1Cl [Example 83, 5-(4-Chlorophenyl)-2-({1-(2-chlorophenyl)-5-[(1R)-1-hydroxyethyl]-1H-1,2,4-triazol-3-yl}-methyl)-4-[(2S)-3,3,3-trifluoro-2-hydroxypropyl]-2,4-dihydro-3H-1,2,4-triazol-3-one] | 279% |  |  |
